We go through 19 molecules from patent publication US9179674B2, “Macrocyclic picolinamide compounds with fungicidal activity” (DOW AGROSCIENCES LLC, priority 2013, dated 2015).

Data set [1] concerns Mycosphaerella graminicola; Anamorph: Septoria tritici. Kind of data set: Leaf Blotch of Wheat fungicidal activity (SEPTTR). The note with it: Zymoseptoria tritici; for pest or weed control at 100 ppm: rate 100 ppm; for pest or weed control at 121.5 g/ha: rate 121.5 g/H. Type of data set: in vivo. The essentials: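 Acetone solutions diluted with nine volumes of water containing 110 ppm Triton X-100, sprayed to run-off on first-leaf wheat seedlings (Yuma), inoculated with S. tritici before or after treatment. Plants held in dew chambers, then in a 20 °C greenhouse. Disease severity (0–100%) scored when untreated plants fully symptomatic; % control relative to untreated.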

In data set [2] the test system is Puccinia triticina. As to the kind of experiment: Wheat Brown Rust fungicidal activity (PUCCRT). The conditions noted are these: Puccinia triticina; for pest or weed control at 100 ppm: rate 100 ppm; for pest or weed control at 121.5 g/ha: rate 121.5 g/H. The class given is in vivo. The essentials:
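Yuma wheat seedlings at first-leaf stage sprayed to run-off (acetone solution in water with 110 ppm Triton X-100) or track-sprayed as EC with 0.1% Trycol 5941; inoculated with P. triticina spores before or after treatment. Overnight dark dew at 22° C., then greenhouse 24° C.; disease severity 0–100% gives percent control vs untreated.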

[3] abbreviates: 24 h, 1 Day Protectant, read-out: Disease control SEPTTR 1DP.
Where [4] appears, read: 72 h, 3 Day Curative, read-out: Disease control SEPTTR 3DC.
Setting [5] is: 24 h, 1 Day Protectant, read-out: Disease control PUCCRT 1DP.
Setting [6] is: 72 h, 3 Day Curative, read-out: Disease control PUCCRT 3DC.

Where two headings read alike, the source gives them in different places.

`Cc1ccc(C[C@H]2COC[C@H](N)C(=O)O[C@@H](C)[C@@H]2OCC(C)C)cc1.Cl` came in with a melting point of 81 to 84 °C.
Molecule `COc1ccnc(C(=O)N[C@H]2COC[C@H](CCc3ccccc3)[C@@H](OC3CCCC3)[C@H](C)OC2=O)c1O` [Compound F1] registered a melting point of 51 to 58 °C. For the same molecule, the pest or weed control at 100 ppm in data set [1] (setting [3]) is 80 to 100%. The pest or weed control at 100 ppm in data set [1] (setting [4]) is 0 to 80%. Also, the pest or weed control at 100 ppm in data set [2] (setting [5]) is 80 to 100%. In data set [2] (setting [6]), the pest or weed control at 100 ppm is 80 to 100%.
The molecule `COc1ccnc(C(=O)N[C@H]2COC[C@H](CCc3ccccc3)[C@@H](OCCCC(F)(F)F)[C@H](C)OC2=O)c1O` [Compound F2] came in with a melting point of 78 to 81 °C. In data set [1] (setting [3]), the pest or weed control at 100 ppm was in the range of 80 to 100%. The pest or weed control at 100 ppm in data set [1] (setting [4]) was 80 to 100%. Also, in data set [2] (setting [5]), the pest or weed control at 100 ppm fell in the range of 80 to 100%. Moreover, the pest or weed control at 100 ppm in data set [2] (setting [6]) lay in the range of 0 to 80%.
`COc1ccnc(C(=O)N[C@H]2COC[C@H](Cc3ccc(Cl)cc3Cl)[C@@H](Oc3ccc(C)cc3)[C@H](C)OC2=O)c1O` [Compound F44] registered a melting point of 81 to 85 °C. Further, the pest or weed control at 100 ppm in data set [2] (setting [5]) lay in the range of 80 to 100%.
For `CCCO[C@@H]1[C@@H](Cc2ccc(C(F)(F)F)cc2)COC[C@H](NC(=O)c2nccc(OC)c2OCOC(C)=O)C(=O)O[C@H]1C` [Compound F101], the pest or weed control at 100 ppm in data set [1] (setting [3]), in data set [1] (setting [4]), in data set [2] (setting [5]) and in data set [2] (setting [6]) was 80 to 100% each time.
Regarding `COc1ccnc(C(=O)N[C@H]2COC[C@H](Cc3ccc(C(F)(F)F)cc3)[C@@H](OC(=O)C(C)C)[C@H](C)OC2=O)c1OCOC(C)=O` [Compound F102], the pest or weed control at 100 ppm in data set [1] (setting [3]), in data set [1] (setting [4]), in data set [2] (setting [5]) and in data set [2] (setting [6]) was 80 to 100% in each case.
As for `CCCCCO[C@@H]1[C@@H](Cc2ccc(C(F)(F)F)cc2)COC[C@H](NC(=O)c2nccc(OC)c2OCOC(C)=O)C(=O)O[C@H]1C` [Compound F103], the pest or weed control at 100 ppm in data set [1] (setting [3]) was 80 to 100%; in data set [1] (setting [4]) it was 0 to 80%; in data set [2] (setting [5]), 80 to 100%; in data set [2] (setting [6]), 80 to 100%.
As to `COc1ccnc(C(=O)N[C@H]2COC[C@H](CC(F)(F)F)[C@@H](OCC(C)C)[C@H](C)OC2=O)c1OCOC(C)=O` [Compound F104], the pest or weed control at 100 ppm in data set [1] (setting [3]), in data set [1] (setting [4]), in data set [2] (setting [5]) and in data set [2] (setting [6]) was 80 to 100% each time. The pest or weed control at 121.5 g/ha in data set [1] (setting [3]), in data set [1] (setting [4]), in data set [2] (setting [5]) and in data set [2] (setting [6]) was 80 to 100% each time.
In the case of `COc1ccnc(C(=O)N[C@H]2COC[C@H](Cc3ccc(Cl)cc3Cl)[C@@H](Oc3ccc(C)cc3)[C@H](C)OC2=O)c1OCOC(C)=O` [Compound F113], the melting point lay in the range of 70 to 74 °C. Further, the pest or weed control at 121.5 g/ha in data set [2] (setting [5]) was in the range of 80 to 100%.
On to `COc1ccnc(C(=O)N[C@H]2COC[C@H](CC3CCCC3)[C@@H](OCC(C)C)[C@H](C)OC2=O)c1OCOC(C)=O` [Compound F115], for which the pest or weed control at 100 ppm in data set [1] (setting [3]), in data set [1] (setting [4]), in data set [2] (setting [5]) and in data set [2] (setting [6]) was 80 to 100% each time. Moreover, the pest or weed control at 121.5 g/ha in data set [1] (setting [3]), in data set [1] (setting [4]), in data set [2] (setting [5]) and in data set [2] (setting [6]) was 80 to 100% throughout.
Take `CCCCCO[C@@H]1[C@@H](CC2CCCC2)COC[C@H](NC(=O)c2nccc(OC)c2OCOC(C)=O)C(=O)O[C@H]1C` [Compound F116]: the pest or weed control at 100 ppm in data set [1] (setting [3]), in data set [1] (setting [4]), in data set [2] (setting [5]) and in data set [2] (setting [6]) was 80 to 100% throughout. Also, the pest or weed control at 121.5 g/ha in data set [1] (setting [3]), in data set [1] (setting [4]), in data set [2] (setting [5]) and in data set [2] (setting [6]) was 80 to 100% throughout.
Regarding `COc1ccnc(C(=O)N[C@H]2COC[C@H](CCc3ccccc3)[C@@H](OC(=O)C3CC3)[C@H](C)OC2=O)c1OCOC(=O)C(C)C` [Compound F118], the pest or weed control at 100 ppm in data set [1] (setting [3]), in data set [1] (setting [4]), in data set [2] (setting [5]) and in data set [2] (setting [6]) was 80 to 100% in each case. Besides, the pest or weed control at 121.5 g/ha in data set [1] (setting [3]), in data set [1] (setting [4]), in data set [2] (setting [5]) and in data set [2] (setting [6]) was 80 to 100% throughout.
Regarding `CCCO[C@@H]1[C@@H](Cc2ccc(C(F)(F)F)cc2)COC[C@H](NC(=O)c2nccc(OC)c2OCOC(=O)COCC)C(=O)O[C@H]1C` [Compound F120, ((4-methoxy-2-(((3S,7S,8R,9S)-9-methyl-2-oxo-8-propoxy-7-(4-(trifluoromethyl)benzyl)-1,5-dioxonan-3-yl)carbamoyl)pyridin-3-yl)oxy)methyl 2-ethoxyacetate], the pest or weed control at 100 ppm in data set [1] (setting [3]) was 80 to 100%; in data set [1] (setting [4]), 80 to 100%; in data set [2] (setting [5]), 80 to 100%; in data set [2] (setting [6]), 0 to 80%.
Regarding `CCOCC(=O)OCOc1c(OC)ccnc1C(=O)N[C@H]1COC[C@H](CC2CCCC2)[C@@H](OC(=O)C(C)C)[C@H](C)OC1=O` [Compound F121], the pest or weed control at 100 ppm in data set [1] (setting [3]), in data set [1] (setting [4]), in data set [2] (setting [5]) and in data set [2] (setting [6]) was 80 to 100% in each case. Moreover, the pest or weed control at 121.5 g/ha in data set [1] (setting [3]), in data set [1] (setting [4]), in data set [2] (setting [5]) and in data set [2] (setting [6]) was 80 to 100% in each case.
For the molecule `CC(C)C(=O)O[C@@H]1[C@@H](Cc2cccc3ccccc23)COC[C@H](N(C(=O)OC(C)(C)C)C(=O)OC(C)(C)C)C(=O)O[C@H]1C` [Compound F128, [(3S,6S,7R,8S)-3-[bis(tert-butoxycarbonyl)amino]-6-methyl-8-(1-naphthylmethyl)-4-oxo-1,5-dioxonan-7-yl]2-methylpropanoate], the melting point was 130 to 132 °C.
`C[C@@H]1OC(=O)[C@@H](N(C(=O)OC(C)(C)C)C(=O)OC(C)(C)C)COC[C@H](Cc2cccc3ccccc23)[C@H]1OC1CCCC1` [Compound F132, tert-butyl N-tert-butoxycarbonyl-N-[(3S,7S,8R,9S)-8-(cyclopentoxy)-9-methyl-7-(1-naphthylmethyl)-2-oxo-1,5-dioxonan-3-yl]carbamate] had a melting point of 49 to 55 °C.
For the molecule `CC(C)CO[C@@H]1[C@@H](Cc2cccc3ccccc23)COC[C@H](N(C(=O)OC(C)(C)C)C(=O)OC(C)(C)C)C(=O)O[C@H]1C` [Compound F133], the melting point was in the range of 57 to 63 °C.
`CCCCCO[C@@H]1[C@@H](Cc2ccc(C)cc2)COC[C@H](N(C(=O)OC(C)(C)C)C(=O)OC(C)(C)C)C(=O)O[C@H]1C` [Compound F134] registered a melting point of 100 to 103 °C.
Consider `C[C@@H]1OC(=O)[C@@H](N(C(=O)OC(C)(C)C)C(=O)OC(C)(C)C)COC[C@H](Cc2ccc(F)cc2)[C@H]1OC(=O)C1CC1` [Compound F136], for which the melting point fell in the range of 131 to 133 °C.
